In ChEMBL document CHEMBL3997785, “Optimization of 2-Anilino 4-Amino Substituted Quinazolines into Potent Antimalarial Agents with Oral in Vivo Activity” (J Med Chem, 2017):
Values after ≈ are worked out from the molar mass of the structure shown.

tested on: not listed separately; assay: Hepatic extraction ratio in mouse liver microsomes at 1 uM in presence of NADPH by LC-MS method; assay type: ADME, microsome; conditions: read-out: ERH

Row | Compound | hepatic extraction ratio at 1 µM
1 | COc1cc2nc(Nc3ccc(F)cc3)nc(NCC3CCCO3)c2cc1OC (centres undefined) | 0.61

tested on: Plasmodium falciparum; assay: Antimalarial activity against Plasmodium falciparum NF54 harboring pfs16-LUC-GFP late stage 4 to 5 gametocytes after 48 hrs by MitoTracker Red staining based confocal microscopy; assay type: functional; conditions: NF54, 48 h

Row | Compound | EC50 [nM]
2 | CCN(CC)CCCC(C)Nc1ccnc2cc(Cl)ccc12 (centres undefined) [CHLOROQUINE] | > 40000

tested on: not listed separately; assay: Intrinsic clearance in human liver microsomes at 1 uM in presence of NADPH by LC-MS method; assay type: ADME, microsome; conditions: read-out: CLH

Row | Compound | microsomal CLint at 1 µM [µL/min/mg]
3 | COc1cc2nc(Nc3ccc(F)cc3)nc(NCC3CCCO3)c2cc1OC (centres undefined) | 27

tested on: Plasmodium falciparum; assay: Antimalarial activity against Plasmodium falciparum 3D7 asexual blood stage infected in human erythrocytes incubated for 72 hrs by LDH assay; assay type: functional, cell-based; conditions: 3D7, 72 h

Row | Compound | EC50 [nM]
4 | CCN(CC)CCCC(C)Nc1ccnc2cc(Cl)ccc12 (centres undefined) [CHLOROQUINE] | 23
5 | COc1cc2nc(Nc3ccc(F)cc3)nc(NCC3CCCO3)c2cc1OC (centres undefined) | 57

tested on: Liver; assay: Drug metabolism in human liver microsomes assessed as O-demethylation of 6 and 7 methoxy groups at 1 uM after 60 mins in presence of NADPH by LC-MS method; assay type: ADME, microsome; conditions: 1 h

Row | Compound | Drug metabolism
6 | COc1cc2nc(Nc3ccc(F)cc3)nc(NCC3CCCO3)c2cc1OC (centres undefined) | Metabolite_Detected

tested on: not listed separately; assay: Half life in mouse liver microsomes at 1 uM in presence of NADPH by LC-MS method; assay type: ADME, microsome; conditions: not given

Row | Compound | half-life at 1 µM [min]
7 | COc1cc2nc(Nc3ccc(F)cc3)nc(NCC3CCCO3)c2cc1OC (centres undefined) | 24

tested on: Plasmodium falciparum; assay: Antimalarial activity against Plasmodium falciparum NF54 harboring pfs16-LUC-GFP ring stage gametocytes after 24 hrs by MitoTracker Red staining based confocal microscopy; assay type: functional; conditions: NF54, 24 h

Row | Compound | EC50 [nM]
8 | CCN(CC)CCCC(C)Nc1ccnc2cc(Cl)ccc12 (centres undefined) [CHLOROQUINE] | 20

tested on: not listed separately; assay: Selectivity index, ratio of EC50 for human HepG2 cells to EC50 for Plasmodium falciparum 3D7 asexual blood stage infected in human erythrocytes; assay type: toxicity, cell-based; conditions: read-out: Ratio EC50

Row | Compound | selectivity ratio
9 | COc1cc2nc(Nc3ccc(F)cc3)nc(NCC3CCCO3)c2cc1OC (centres undefined) | 96

tested on: Plasmodium falciparum; assay: Antimalarial activity against synchronous culture of Plasmodium falciparum 3D7 ring stage parasite infected in human erythrocytes incubated for 3 hrs followed by compound wash out and measured after 24 hrs by NanoGlo-reagent based bioluminescence assay; assay type: functional, cell-based; conditions: not given

Row | Compound | EC50 [nM]
10 | CCN(CC)CCCC(C)Nc1ccnc2cc(Cl)ccc12 (centres undefined) [CHLOROQUINE] | 608

tested on: not listed separately; assay: Hepatic extraction ratio in human liver microsomes at 1 uM in presence of NADPH by LC-MS method; assay type: ADME, microsome; conditions: read-out: ERH

Row | Compound | hepatic extraction ratio at 1 µM
11 | COc1cc2nc(Nc3ccc(F)cc3)nc(NCC3CCCO3)c2cc1OC (centres undefined) | 0.52

tested on: not listed separately; assay: Aqueous solubility of the compound at pH 6.5 by nephelometry; assay type: physicochemical; conditions: not given

Row | Compound | solubility kinetic [µM]
12 | COc1cc2nc(Nc3ccc(F)cc3)nc(NCC3CCCO3)c2cc1OC (centres undefined) | 3.1 to 6.3 (≈ 1.24 to 2.51 µg/mL)

tested on: Liver; assay: Drug metabolism in mouse liver microsomes assessed as O-demethylation of 6 and 7 methoxy groups at 1 uM after 60 mins in presence of NADPH by LC-MS method; assay type: ADME, microsome; conditions: 1 h

Row | Compound | Drug metabolism
13 | COc1cc2nc(Nc3ccc(F)cc3)nc(NCC3CCCO3)c2cc1OC (centres undefined) | Metabolite_Detected

tested on: not listed separately; assay: Half life in human liver microsomes at 1 uM in presence of NADPH by LC-MS method; assay type: ADME, microsome; conditions: not given

Row | Compound | half-life at 1 µM [min]
14 | COc1cc2nc(Nc3ccc(F)cc3)nc(NCC3CCCO3)c2cc1OC (centres undefined) | 64

tested on: HepG2; assay: Cytotoxicity against human HepG2 cells assessed as growth inhibition after 48 hrs by Cell Titer-Glo assay; assay type: cell-based; conditions: HepG2, 48 h

Row | Compound | EC50 [nM]
15 | COc1cc2nc(Nc3ccc(F)cc3)nc(NCC3CCCO3)c2cc1OC (centres undefined) | 5500

tested on: Plasmodium falciparum; assay: Antimalarial activity against synchronous culture of Plasmodium falciparum 3D7 ring stage parasite infected in human erythrocytes incubated for 24 hrs followed by compound wash out and measured after 24 hrs by NanoGlo-reagent based bioluminescence assay; assay type: functional, cell-based; conditions: 3D7, 24 h

Row | Compound | EC50 [nM]
16 | CCN(CC)CCCC(C)Nc1ccnc2cc(Cl)ccc12 (centres undefined) [CHLOROQUINE] | 286

tested on: Plasmodium falciparum; assay: Antimalarial activity against synchronous culture of Plasmodium falciparum 3D7 ring stage parasite infected in human erythrocytes incubated for 6 hrs followed by compound wash out and measured after 24 hrs by NanoGlo-reagent based bioluminescence assay; assay type: functional, cell-based; conditions: not given

Row | Compound | EC50 [nM]
17 | CCN(CC)CCCC(C)Nc1ccnc2cc(Cl)ccc12 (centres undefined) [CHLOROQUINE] | 643

tested on: not listed separately; assay: Aqueous solubility of the compound at pH 2 by nephelometry; assay type: physicochemical; conditions: not given

Row | Compound | solubility kinetic [µM]
18 | COc1cc2nc(Nc3ccc(F)cc3)nc(NCC3CCCO3)c2cc1OC (centres undefined) | 25 to 50 (≈ 9.96 to 19.9 µg/mL)

tested on: not listed separately; assay: Intrinsic clearance in mouse liver microsomes at 1 uM in presence of NADPH by LC-MS method; assay type: ADME, microsome; conditions: read-out: CLH

Row | Compound | microsomal CLint at 1 µM [µL/min/mg]
19 | COc1cc2nc(Nc3ccc(F)cc3)nc(NCC3CCCO3)c2cc1OC (centres undefined) | 72
